In patent US20190316211A1, “ONCOGENIC ALTERNATIVE SPLICING SWITCH OF PACE4 IN CANCER” (SOCIETE DE COMMERCIALISATION DES PRODUITS DE LA RECHERCHE …, priority 2016, published 2019):

How the values were obtained:
Type in all cases: cell-based
DU145 cells = experiment: PACE4 exon 25 splicing index (PACE4-altCT/PACE4-FL mRNA) by qPCR; conditions: DU145, treated for 72 h
Experimental: (§1) For actinomycin-D (Sigma Aldrich) or cycloheximide (Sigma Aldrich) treatments, compounds were first dissolved in DMSO, and diluted to a final concentration of 5 μg/mL and 40 μg/mL in the culture medium respectively. Actinomycin-D treatment never exceeded 8 h, which is the time-frame prior to early apoptosis induction. For treatments wit 5-aza-2′-deoxy-cytidine (Sigma Aldrich), compound was first dissolved in DMSO and further diluted prior to addition to cell culture medium, which was changed every day and replaced with fresh one containing the compound for a total exposure of 72 h. […]
(§2) 1 μg RNA was DNase I-treated (Invitrogen), reverse-transcribed using Superscript II reverse transcriptase (Invitrogen), and RNase H-treated (Ambion, Austin, Tex.) before quantitative PCR performed using a Stratagene Mx3005P instrument. Relative expression levels were calculated using β-actin as a reference gene with the formula (1+amplification efficiency)^−(CT). […]

LNCaP cells = experiment: as above; conditions: treated for 72 h
Experimental: as §1, §2

[1] = tested on: CpG dinucleotides of interest in PCSK6 gene; experiment: CpG methylation status analysis by pyrosequencing; conditions: DU145 and LNCaP cells, 72 h, refreshed every 24 h
Excerpt: FIG. 5 illustrates decitabine (5-aza-dC) efficiency at hypomethylating CpG dinucleotides of interest in PCSK6 gene, showing in (A) schematic representation of the 3′ extremity of PCSK6 gene, putting emphasis on the coding and non-coding region between exon 24, exon 25 and exon 25 alt, wherein ChiP-Seq enriched regions as viewed in UCSC genome browser ChiP-Seq are represented as ovals, each CpG nucleotide analyzed is highlighted, and the inversion of 5′ and 3′ ends is shown for reading purposes; (B) DU145 and LNCaP cells (C) were treated with decitabine at the indicated concentrations for 72 h (medium and decitabine being refreshed every 24 h) and DNA was extracted and used for CpG methylation status analysis using pyrosequencing.
DNA was purified from 14 pairs of tumoral and non-tumoral prostate biopsies and from DU145 and LNCaP cells treated with 5axa-dC using DNeasy Blood & Tissue Kit (Qiagen, #69504). Concentration, yield and purity of gDNA samples were measured using spectrometry. All samples provided good gDNA yield and quality (A260/A280 ratio between 1.7 and 2.0). Gold standard pyrosequencing technology was used to determine base-specific cytosine methylation levels located upstream of guanines (sequence called CpG dinucleotides). […] Overall, nine potentially methylated cytosines (in a CpG dinucleotides context) were analyzed at the PCSK6 gene locus.

[2] = tested on: CTCF binding to PCSK6 alternative terminal exon regions; experiment: Chromatin immunoprecipitation with anti-CTCF antibody; conditions: DU145 and LNCaP cells treated for 72 h
Experimental: Cells were cultured in 150 mm culture dishes and submitted to crosslinking through the addition of formaldehyde to a final concentration of 1.1% for 10 min at room temperature followed by a quenching step with 125 mM glycine for another 5 min. Cells were washed twice with ice-cold PBS, collected using a cell scraper and frozen in liquid nitrogen and stored at −80° C. until analyses. Cell pellets were resuspended in HEPES 10 mM pH 6.5; 0.5 mM EDTA, 0.25% Triton-X-100 and centrifugated at 4,000 rpm at 4° C. for 5 min. Pellet was further lysed by adding 200 μL of Tris 50 mM pH 8.1; 10 mM EDTA, 1% SDS and passing 3 times through a 28 G syringe. Cell preparations were incubated 1 h at 4° C. with constant agitation and nuclei were pelleted by a centrifugation at 5,000 rpm. […] DNA fragmentation was routinely assessed by agarose gel electrophoresis using 10 μL of the fragmented DNA solution (beforehand treated with RNase A 10 μg/mL for 10 min). For each IP, 350 μg of DNA were used (based on concentration determined using the OD260 nm) and 5% of the corresponding volumes were kept aside as Input DNA for quantitation. […] 3 μL of the purified DNA were further used for qPCR analyses and quantitation was established using the 1% input as a standard.

PACE4-FL = biological target: T1, PACE4-FL (Homo sapiens, UniProt P29122); experiment: PACE4 secretion assay, displacement by heparin; conditions: increasing doses
T1 construct: V5 (C); His (C); expressed in transfected cells
T1 sequence (P29122 150-969): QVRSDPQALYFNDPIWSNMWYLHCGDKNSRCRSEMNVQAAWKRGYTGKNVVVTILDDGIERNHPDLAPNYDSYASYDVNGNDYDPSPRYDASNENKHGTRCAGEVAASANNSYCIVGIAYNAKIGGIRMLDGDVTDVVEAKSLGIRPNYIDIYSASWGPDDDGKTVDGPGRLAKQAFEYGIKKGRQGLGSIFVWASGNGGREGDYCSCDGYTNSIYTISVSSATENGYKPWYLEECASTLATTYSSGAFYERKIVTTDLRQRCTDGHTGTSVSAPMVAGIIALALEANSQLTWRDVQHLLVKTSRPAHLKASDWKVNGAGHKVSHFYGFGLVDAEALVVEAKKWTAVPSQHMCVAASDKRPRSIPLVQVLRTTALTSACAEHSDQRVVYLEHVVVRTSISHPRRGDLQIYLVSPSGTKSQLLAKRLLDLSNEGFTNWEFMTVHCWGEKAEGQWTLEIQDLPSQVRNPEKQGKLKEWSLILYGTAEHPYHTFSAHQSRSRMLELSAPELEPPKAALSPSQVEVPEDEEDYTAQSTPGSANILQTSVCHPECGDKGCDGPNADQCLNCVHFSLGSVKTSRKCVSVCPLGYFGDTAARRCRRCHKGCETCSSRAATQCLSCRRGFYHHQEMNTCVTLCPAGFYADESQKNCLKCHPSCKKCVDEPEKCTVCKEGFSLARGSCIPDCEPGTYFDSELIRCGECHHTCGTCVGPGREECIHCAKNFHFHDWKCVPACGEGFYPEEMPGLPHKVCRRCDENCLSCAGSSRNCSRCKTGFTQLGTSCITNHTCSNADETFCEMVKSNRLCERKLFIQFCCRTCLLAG
Excerpt: (§3) The first major distinction observed was the lack of secretion of PACE4-altCT accompanied with intracellular retention when compared to PACE4-FL which was efficiently secreted in the medium (FIGS. 7B and C). This observation correlated with the distinct cell distribution observed for each isoforms in IHC, i.e. the PACE4-FL being more accumulated at the membrane/extracellular surface compared to PACE4-altCT being restricted to the vesicular intracellular compartment (FIG. 3D). PACE4, at least PACE4-FL, is known to be secreted in the medium and to be retained in the extracellular matrix through the binding to heparan sulfate proteoglycans by its cysteine-rich domain and to be displaceable by heparin.
(§4) For PACE4 secretion assays, cells were plated at equal densities in 6-well plates for 24 h in complete medium. 24 h later, the medium was replaced by the minimal volume required of fresh culture medium (600 μL without FBS) and the cells were either allowed to secrete for the indicated time (for secretion kinetics) or (for inhibitor treatments) allowed to secrete for an additional 24 h in the presence of the indicated concentrations of agents (heparin (Sandoz, Niirnberg, Germany), 2-bromopalmitate (Sigma Aldrich), FTI-277 (Sigma Aldrich), GGTI-2133 (Santa Cruz Biotechnology Inc., Santa Cruz, Calif., USA)

PACE4-altCT = biological target: T2, PACE4-altCT (Homo sapiens, UniProt P29122); experiment: PACE4 secretion assay, displacement by heparin; conditions: increasing doses
T2 construct: V5 (C); His (C); expressed in transfected cells
T2 sequence (P29122 with tags, fused parts or gaps limits assumed): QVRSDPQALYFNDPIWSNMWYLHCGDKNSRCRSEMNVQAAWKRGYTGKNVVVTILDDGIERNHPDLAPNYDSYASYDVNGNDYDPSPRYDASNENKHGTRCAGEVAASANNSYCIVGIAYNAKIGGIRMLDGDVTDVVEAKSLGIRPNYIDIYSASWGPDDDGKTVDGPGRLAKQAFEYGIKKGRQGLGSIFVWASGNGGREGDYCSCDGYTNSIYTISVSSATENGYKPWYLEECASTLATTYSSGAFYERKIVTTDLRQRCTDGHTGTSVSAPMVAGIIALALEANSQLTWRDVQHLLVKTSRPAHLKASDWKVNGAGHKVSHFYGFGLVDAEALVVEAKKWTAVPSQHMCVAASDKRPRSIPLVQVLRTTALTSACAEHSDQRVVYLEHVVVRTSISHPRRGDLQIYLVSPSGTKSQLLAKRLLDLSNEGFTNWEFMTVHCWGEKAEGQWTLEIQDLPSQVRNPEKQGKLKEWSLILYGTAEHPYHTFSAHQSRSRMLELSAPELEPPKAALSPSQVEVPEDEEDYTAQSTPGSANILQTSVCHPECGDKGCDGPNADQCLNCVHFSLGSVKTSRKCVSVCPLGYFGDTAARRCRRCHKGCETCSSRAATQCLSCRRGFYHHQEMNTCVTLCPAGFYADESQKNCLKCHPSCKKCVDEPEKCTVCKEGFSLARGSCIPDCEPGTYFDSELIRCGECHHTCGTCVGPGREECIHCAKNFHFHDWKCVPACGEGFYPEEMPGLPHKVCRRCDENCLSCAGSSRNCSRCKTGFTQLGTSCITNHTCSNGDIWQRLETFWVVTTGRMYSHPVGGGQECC
Excerpt: as §3, §4

Compound	change of splicing index (DU145 cells)	change of splicing index (LNCaP cells)	CpG hypomethylation [1]	CTCF ChIP enrichment of intra-exonic and upstream region [2]	displacement into the medium by heparin (PACE4-FL)	displacement into the medium by heparin (PACE4-altCT)
Nc1ncn([C@H]2C[C@H](O)[C@@H](CO)O2)c(=O)n1 [decitabine, 5-aza-2′-deoxycytidine]	increased in a dose-dependent manner	increased in a dose-dependent manner	sensitive to decitabine in a dose-dependent manner	clear enrichment	–	–
heparin	–	–	–	–	increased amount in the medium	could not be displaced
